What was measured:
[1] = target: T1, full length BRD4 ZsGreen fusion protein (Homo sapiens, UniProt O60885); assay: Bromodomain chromatin release assay, BRD4 (U2OS, high content imaging); format: cell-based; settings: 2 hr, n = 2 biological replicates ± SEM, read-out: IC50 (μM), BRD4 chromatin release (EC50)
T1 construct: CBP: CBP-bromodomain/BRD9; BRD4: full length BRD4; expressed in transfected cells
Description: As described previously ([Huang et al., 2014]), this assay monitors the compound-dependent release and aggregation of a fusion protein consisting of a bromodomain and the fluorescent protein ZsGreen. For the BRD4 chromatin release assay, U2OS cells capable of inducibly expressing the full-length BRD4 protein in fusion with ZsG were generated using the pLVT3G/ZsGreen-BRD4/TO3G vector and maintained in blasticidin at 15 μg/ml. […] Therefore, the bromodomain (BD) of CBP was cloned into full length BRD9 (replacing the BRD9 BD) in frame with a ZsGreen fluorescent tag (ZsG). U2OS cells capable of inducibly expressing the ZsGreen-CBPBD fusion protein were generated by lentiviral delivery of the pLVT3G/BRD9-ZsG-CBPBD/TO3G vector, which contains both the inducible fusion protein and the tet transactivator. Cells were selected and maintained in the presence of 15 μg/ml blasticidin. 5000 cells/well were seeded in 384-well imaging plates in the presence of 2 μg/ml doxycycline to induce the expression of ZsG-fusion proteins. After 16 hr of incubation with doxycycline, fresh media containing serial dilution of compounds were added to the cells for 2 hr at 37°C. Cells were fixed with 4% paraformaldehyde (PFA) dissolved in PBS for 15 min at room temperature. Images of cells were acquired using ImageXpress Micro (Molecular Devices, Inc.; Sunnyvale, CA) and processed with the Transfluor Module of MetaXpress software. Average pits per cell values were obtained from four adjacent images in each well with two technical replicates for each compound concentration. Dose-response curves were generated by plotting the average pits per cell values at each dose and EC50 values were calculated by a four-parameter non-linear regression model in GraphPad Prism.

[2] = target: T2, CBP bromodomain and histone H3.3 (Homo sapiens, UniProt Q92793); assay: NanoBRET, CBP bromodomain/histone H3.3 in HEK293 cells; format: cell-based; settings: NanoBRET, 293 cells
T2 construct: NanoBRET with the isolated CBP bromodomain and histone H3.3 in 293 cells; host or cells: HEK293
Description: NanoBRET was carried out using the NanoBRET Protein:Protein Interaction System (Promega, Inc.; Madison, WI) according to the manufacturer’s instructions. Briefly, HEK293 cells were transiently co-transfected with a vector for histone H3.3-HaloTag and a NanoLuc tagged CBP bromodomain expression construct. Transfected cells were plated in 96 -well plates in the presence or absence of ligand, then treated with dose titrations of indicated compounds. Readings were performed on an Envision Plate Reader (Perkin Elmer, Inc.; Waltham, MA) and BRET readings were calculated by dividing the acceptor emission value (600 nm) by the donor emission value (460/50 nm).

[3] = target: T3, CBP bromodomain (amino acids 1082–1197) (Homo sapiens, UniProt Q92793); assay: AlphaLISA, acetylated peptide binding to CBP bromodomain; settings: isolated CBP bromodomain, H4-TetraAc-biotin peptide; n ≥ 2 independent replicates
T3 construct: His-Flag-tagged CBP bromodomain (amino acids 1082–1197)
Description: (§1) Compound at varying concentrations were dispensed into 384 well Proxiplates (Perkin Elmer) using Echo technology (Labcyte, Inc.; Sunnyvale, CA). For CBP assays, 0.5 μM His-Flag-tagged CBP bromodomain (amino acids 1082–1197) was incubated with 0.003 μM H4-TetraAc-biotin for 20 min at room temperature in 1x reaction buffer (50 mM HEPES pH 7.5, 1 mM TCEP, 0.069 mM Brij-35, 150 mM NaCl, and 0.1 mg/ml BSA). Streptavidin acceptor beads and nickel donor beads (Perkin Elmer) were added to 15 μg/ml with a Combi Multidrop dispenser. Plates were sealed and incubated at 90 min in the dark at room temperature, and plates were read on an Envision plate reader (Perkin Elmer) according to manufacturer’s instructions. For the BET assays, the protocol was similar except that BET family bromodomains were used at 0.03 μM (BRD4-BD1) and incubated with 0.2 μM H4-TetraAc-biotin for 20 min in reaction buffer (40 mM HEPES pH7.0, 1 mM DTT, 0.069 mM Brij-35, 40 mM NaCl, and 0.1 mg/ml BSA). Streptavidin donor beads and Anti-Flag Acceptor beads (Perkin Elmer) were added to 10 μg/ml, and then plates were sealed and incubated in the dark for 60 min prior to reading on the Envision.

[4] = target: T4, first bromodomain of BRD4 (BRD4-BD1) (Homo sapiens, UniProt O60885); assay: AlphaLISA, acetylated peptide binding to BRD4-BD1; settings: BRD4-BD1, H4-TetraAc-biotin peptide; n ≥ 2 independent replicates
T4 construct: the first bromodomain of BRD4 (BRD4-BD1)
Description: as §1

T2 sequence (Q92793 1085-1192 limits assumed): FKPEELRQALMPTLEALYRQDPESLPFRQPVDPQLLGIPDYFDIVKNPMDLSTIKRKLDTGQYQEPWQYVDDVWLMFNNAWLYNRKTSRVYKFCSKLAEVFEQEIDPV
T3 sequence (Q92793 1082-1197): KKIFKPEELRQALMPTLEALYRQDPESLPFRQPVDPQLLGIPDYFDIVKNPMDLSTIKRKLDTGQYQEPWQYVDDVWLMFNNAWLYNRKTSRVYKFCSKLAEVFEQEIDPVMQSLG

Cc1sc2c(c1C)C(c1ccc(Cl)cc1)=N[C@@H](CC(N)=O)c1nnc(C)n1-2 [CPI203]
EC50 [1]: 0.05 ± 0.02 µM | dose-dependent inhibition of CBP-H3.3 binding [2]: did not display dose-dependent inhibition | IC50 [3]: 6500 ± 640 nM | IC50 [4]: 50 ± 10 nM

Source: PMC4775225, “Bromodomain inhibition of the transcriptional coactivators CBP/EP300 as a therapeutic strategy to target the IRF4 network in multiple myeloma” (eLife, 2016)
